From ChEMBL document CHEMBL1800055, “Orally active MMP-1 sparing α-tetrahydropyranyl and α-piperidinyl sulfone matrix metalloproteinase (MMP) inhibitors with efficacy in cancer, arthritis, and cardiovascular disease” (J Med Chem, 2010) come the findings set out here.

Data set [1] addresses Matrix metalloproteinase-9 (Homo sapiens, UniProt P14780).
Data set [2] concerns the target Collagenase 3 (Homo sapiens, UniProt P45452).
Data set [3] addresses Neutrophil collagenase (Homo sapiens, UniProt P22894).
Data set [4] addresses 72 kDa type IV collagenase (Homo sapiens, UniProt P08253).
For data set [5], the target named is T1, Interstitial collagenase (Homo sapiens, UniProt P03956).
T1 sequence (P03956 whole entry): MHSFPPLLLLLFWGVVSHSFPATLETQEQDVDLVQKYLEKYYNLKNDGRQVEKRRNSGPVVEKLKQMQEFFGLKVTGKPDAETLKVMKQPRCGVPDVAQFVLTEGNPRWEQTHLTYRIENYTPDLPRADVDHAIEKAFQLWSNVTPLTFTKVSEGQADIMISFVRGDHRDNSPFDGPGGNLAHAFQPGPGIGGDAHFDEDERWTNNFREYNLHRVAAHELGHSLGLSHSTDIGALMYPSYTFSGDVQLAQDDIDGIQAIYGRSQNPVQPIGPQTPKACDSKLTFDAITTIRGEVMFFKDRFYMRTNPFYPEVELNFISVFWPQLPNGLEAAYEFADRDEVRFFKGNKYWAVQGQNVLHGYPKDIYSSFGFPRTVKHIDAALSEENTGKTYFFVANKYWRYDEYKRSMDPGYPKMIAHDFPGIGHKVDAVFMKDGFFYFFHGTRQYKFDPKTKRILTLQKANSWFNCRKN
The format is cell-based, HT-1080.

The nature of data set [6]: Cmax in rat at 20 mg/kg, po. The format is ADME, organism-based. The arrangement: dose 20 mg/kg, route oral. As to conditions: in vivo.
Data set [7] concerns Rattus norvegicus. Kind of data set: Plasma concentration in rat at 20 mg/kg, po. Also: time not given here. The arrangement: dose 20 mg/kg, route oral. The format is ADME, organism-based. Particulars: in vivo.
Data set [8] in a line: Half life in rat at 20 mg/kg, po. Particulars: in vivo. Type of data set: ADME, organism-based. The arrangement: dose 20 mg/kg, route oral.
In data set [9] the target is Stromelysin-1 (Homo sapiens, UniProt P08254).
Data set [10] is described as follows: Oral bioavailability in rat at 20 mg/kg. Type of data set: ADME, organism-based. Particulars: in vivo.

A value given as a limit tells only on which side of the number the result lay.

Neutrophil collagenase, sequence (P22894 whole entry): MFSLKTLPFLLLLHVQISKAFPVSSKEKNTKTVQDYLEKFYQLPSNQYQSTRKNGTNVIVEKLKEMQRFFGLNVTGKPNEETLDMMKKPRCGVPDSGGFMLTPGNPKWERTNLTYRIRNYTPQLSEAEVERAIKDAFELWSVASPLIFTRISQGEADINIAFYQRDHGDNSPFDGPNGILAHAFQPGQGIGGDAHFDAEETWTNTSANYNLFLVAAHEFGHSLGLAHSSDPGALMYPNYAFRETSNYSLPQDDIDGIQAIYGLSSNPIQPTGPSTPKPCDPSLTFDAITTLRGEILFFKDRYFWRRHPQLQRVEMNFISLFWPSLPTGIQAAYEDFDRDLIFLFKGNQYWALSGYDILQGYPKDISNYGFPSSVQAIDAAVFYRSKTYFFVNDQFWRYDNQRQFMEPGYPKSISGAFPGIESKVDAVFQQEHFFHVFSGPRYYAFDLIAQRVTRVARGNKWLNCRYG
Stromelysin-1, sequence (P08254 whole entry): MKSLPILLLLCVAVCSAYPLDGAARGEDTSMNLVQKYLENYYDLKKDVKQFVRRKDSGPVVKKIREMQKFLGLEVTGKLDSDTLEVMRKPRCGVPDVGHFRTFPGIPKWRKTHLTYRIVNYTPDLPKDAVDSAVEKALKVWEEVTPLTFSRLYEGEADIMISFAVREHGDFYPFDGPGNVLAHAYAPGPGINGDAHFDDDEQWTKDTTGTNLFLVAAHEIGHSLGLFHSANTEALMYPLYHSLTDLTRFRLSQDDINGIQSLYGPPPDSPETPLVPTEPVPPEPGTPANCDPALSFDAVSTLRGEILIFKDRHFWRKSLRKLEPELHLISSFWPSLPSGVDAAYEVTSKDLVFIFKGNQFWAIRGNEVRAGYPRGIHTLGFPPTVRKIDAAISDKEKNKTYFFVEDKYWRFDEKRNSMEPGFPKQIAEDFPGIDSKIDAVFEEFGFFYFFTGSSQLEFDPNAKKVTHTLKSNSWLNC
Matrix metalloproteinase-9, sequence (P14780 whole entry): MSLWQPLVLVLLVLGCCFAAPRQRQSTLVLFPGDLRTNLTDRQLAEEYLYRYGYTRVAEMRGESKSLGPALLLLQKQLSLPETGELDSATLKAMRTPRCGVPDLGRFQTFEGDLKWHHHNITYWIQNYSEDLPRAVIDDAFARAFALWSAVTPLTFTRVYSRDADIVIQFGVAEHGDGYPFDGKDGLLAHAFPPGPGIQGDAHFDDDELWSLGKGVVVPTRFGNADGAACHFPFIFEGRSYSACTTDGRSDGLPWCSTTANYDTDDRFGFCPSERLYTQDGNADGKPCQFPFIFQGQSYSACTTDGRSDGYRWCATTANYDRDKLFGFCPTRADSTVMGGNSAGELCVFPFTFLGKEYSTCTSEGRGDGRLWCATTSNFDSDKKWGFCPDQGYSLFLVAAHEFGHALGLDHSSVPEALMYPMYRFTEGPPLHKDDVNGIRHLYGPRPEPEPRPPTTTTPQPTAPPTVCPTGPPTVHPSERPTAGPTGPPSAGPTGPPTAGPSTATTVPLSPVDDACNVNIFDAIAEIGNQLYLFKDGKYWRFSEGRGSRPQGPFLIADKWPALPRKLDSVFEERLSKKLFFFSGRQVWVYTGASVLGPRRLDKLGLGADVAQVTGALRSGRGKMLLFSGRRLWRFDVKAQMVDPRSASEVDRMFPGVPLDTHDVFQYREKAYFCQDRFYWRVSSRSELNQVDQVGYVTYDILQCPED
72 kDa type IV collagenase, sequence (P08253 whole entry): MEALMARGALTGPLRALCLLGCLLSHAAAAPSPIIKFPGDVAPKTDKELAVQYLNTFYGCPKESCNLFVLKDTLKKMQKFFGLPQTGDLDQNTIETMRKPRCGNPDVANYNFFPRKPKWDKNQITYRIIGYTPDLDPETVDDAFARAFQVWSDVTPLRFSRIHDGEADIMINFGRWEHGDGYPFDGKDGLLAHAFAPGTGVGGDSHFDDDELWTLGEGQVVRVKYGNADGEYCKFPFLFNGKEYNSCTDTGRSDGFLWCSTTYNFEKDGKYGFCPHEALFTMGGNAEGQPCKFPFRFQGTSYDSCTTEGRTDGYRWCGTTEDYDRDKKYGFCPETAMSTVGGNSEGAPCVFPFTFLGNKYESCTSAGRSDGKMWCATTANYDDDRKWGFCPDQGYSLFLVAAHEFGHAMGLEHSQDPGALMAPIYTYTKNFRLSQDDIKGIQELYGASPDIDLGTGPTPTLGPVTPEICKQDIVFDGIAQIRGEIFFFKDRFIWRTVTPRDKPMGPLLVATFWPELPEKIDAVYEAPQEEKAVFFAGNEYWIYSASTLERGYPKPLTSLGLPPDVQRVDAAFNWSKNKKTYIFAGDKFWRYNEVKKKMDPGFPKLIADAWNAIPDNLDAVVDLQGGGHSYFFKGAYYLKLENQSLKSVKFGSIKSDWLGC

Take `CC(C)N1CCC(C(=O)NO)(S(=O)(=O)c2ccc(Oc3ccc(OC(F)(F)F)cc3)cc2)CC1`: the IC50 (as a rule, the point on the concentration scale where inhibition reaches its midpoint) in [1] was less than 0.1 nM; in data set [2] it was less than 0.1 nM; in data set [3], 0.4 nM; in [4], less than 0.1 nM; in data set [5] it was greater than 10000 nM.
In the case of `O=C(NO)C1(S(=O)(=O)c2ccc(Oc3ccc4c(c3)OCO4)cc2)CCN(C2CC2)CC1`, the 50% inhibitory concentration (IC50) in data set [1] is less than 0.1 nM; in [2], 0.3 nM; in data set [4], 0.5 nM; in data set [5], 1000 nM. The highest level in data set [6] (Cmax) was 13100 ng/mL. Moreover, in [7], the Cp was 206 ng/mL.
As for `C#CCN1CCC(C(=O)NO)(S(=O)(=O)c2ccc(Oc3ccc4c(c3)OCO4)cc2)CC1`, in data set [8], the half-life – broadly, the time needed for the level to fall by half in the phase considered – was 0.843 h. Further, the IC50 worked out at 18.1 nM in [9], 0.6 nM in data set [2], 1.3 nM in [3] and 2000 nM in data set [5]. In addition, the bioavailability (commonly the share of a dose that reaches the circulation, judged against a reference dose that is usually intravenous) in data set [10] was 30.1%. The Cp in data set [7] was found to be 134 ng/mL.
On to `CSc1ccc(Oc2ccc(S(=O)(=O)C3(C(=O)NO)CCOCC3)cc2)cc1`, for which the IC50 in [1] was less than 0.1 nM; in data set [2], less than 0.1 nM; in data set [4], less than 0.1 nM; in data set [5] it was 2500 nM.
Regarding `O=C(NO)C1(S(=O)(=O)c2ccc(Oc3ccc(OC(F)(F)F)cc3)cc2)CCN(CCO)CC1`, the half-life in data set [8] was 1.39 h. In addition, the figures for the IC50 in [2], in data set [4] and in [5] were less than 0.1 nM, less than 0.1 nM and 4500 nM, respectively. In addition, the bioavailability in data set [10] amounted to 21.9%. Besides, the concentration in [6] peaked (Cmax) at 1380 ng/mL. The Cp in data set [7] was found to be 570 ng/mL.
As for `O=C(NO)C1(S(=O)(=O)c2ccc(Oc3ccc(-c4ccccc4)cc3)cc2)CCOCC1`, the IC50 in data set [9] was 50 nM; in data set [2] it was 0.25 nM; in data set [3], 2.4 nM; in [4], 0.1 nM; in data set [5], 1400 nM.
For the compound `CC(C)c1ccc(Oc2ccc(S(=O)(=O)C3(C(=O)NO)CCN(C(C)C)CC3)cc2)cc1`, the IC50 was 22.5 nM in data set [9]; 2.7 nM in data set [2]; 1.8 nM in [3]; 1 nM in [4]; greater than 10000 nM in data set [5].
As for `COCCN1CCC(C(=O)NO)(S(=O)(=O)c2ccc(Oc3ccc(C(C)C)cc3)cc2)CC1`, the half-inhibitory concentration (IC50) in data set [2] is 0.2 nM; in [4] it was 0.1 nM; in data set [5] it was 10000 nM.
For `COCCN1CCC(C(=O)NO)(S(=O)(=O)c2ccc(Oc3ccc(OC(C)C)cc3)cc2)CC1`, the IC50 in data set [2] stood at 0.5 nM; in data set [4], 0.3 nM; in data set [5] it was 2000 nM.
As to `O=C(NO)C1(S(=O)(=O)c2ccc(Oc3ccc4c(c3)OCCO4)cc2)CCN(C2CC2)CC1`, the half-life in data set [8] is 3.3 h. In addition, the IC50 in [9] turned out to be 21.5 nM; in data set [2], 0.5 nM; in data set [3] it was 1.5 nM; in data set [4], 0.2 nM; in data set [5], 6000 nM. The bioavailability in data set [10] is 16.6%. Also, the Cmax (in general, the peak of the concentration-time curve) in data set [6] was 9460 ng/mL. The Cp in data set [7] was determined as 15 ng/mL.
Turning to `COc1ccc(Oc2ccc(S(=O)(=O)C3(C(=O)NO)CCN(Cc4ccccn4)CC3)cc2)cc1`, the IC50 in [9] came to 20.6 nM; in data set [2], 0.3 nM; in data set [3], 1.9 nM; in data set [4], 0.2 nM; in data set [5], 4500 nM. This compound also gave a Cp in [7] of 160 ng/mL.
Take `O=C(NO)C1(S(=O)(=O)c2ccc(Oc3ccc4c(c3)OCO4)cc2)CCNCC1`: the IC50 came to 35 nM in [9] and 2.4 nM in [3]. This compound also yielded a Cmax in data set [6] of 1550 ng/mL. The compound further gave a Cp in [7] of 128 ng/mL.
In turn, `O=C(NO)C1(S(=O)(=O)c2ccc(Oc3ccc(C(F)(F)F)cc3)cc2)CCN(CCN2CCOCC2)CC1` showed a half-life in data set [8] of 0.94 h. For the same compound, the results for the IC50 in data set [2] and in data set [4] were 0.35 nM and 0.3 nM, respectively. This compound gave a bioavailability in [10] of 2.6%. Moreover, the highest concentration (Cmax) in data set [6] is 147 ng/mL. In data set [7], the Cp came out at 73 ng/mL.
Consider `CCOc1ccc(Oc2ccc(S(=O)(=O)C3(C(=O)NO)CCN(C4CC4)CC3)cc2)cc1`, for which the IC50 in data set [1] came out at 0.2 nM; in [2], 0.25 nM; in data set [4], 0.1 nM; in data set [5], 1000 nM.
As to `CCN1CCC(C(=O)NO)(S(=O)(=O)c2ccc(Oc3ccc(C(F)(F)F)cc3)cc2)CC1`, the IC50 in data set [9] was 36.9 nM; in data set [2], 0.6 nM; in data set [3], 1.4 nM; in data set [4], 0.2 nM; in [5] it was greater than 10000 nM.
`CCOCCN1CCC(C(=O)NO)(S(=O)(=O)c2ccc(Oc3ccc(OC(F)(F)F)cc3)cc2)CC1`: the half-life in data set [8] is 1.66 h. Besides, the bioavailability in [10] is 14.7%. This compound also gave a Cmax in [6] of 3130 ng/mL. In [7], this compound displayed a Cp of 3040 ng/mL. This compound had an IC50 in data set [5] of 5900 nM.
In turn, `C#CCN1CCC(C(=O)NO)(S(=O)(=O)c2ccc(Oc3ccc(C(C)C)cc3)cc2)CC1` showed a half-life in data set [8] of 0.73 h. Besides, the IC50 is 32.6 nM in data set [9]; 0.25 nM in [2]; 1.6 nM in [3]; 0.1 nM in data set [4]; greater than 10000 nM in data set [5]. In data set [10], this compound returned a bioavailability of 23.8%. For the same compound, in data set [6], the peak level (Cmax) was 5310 ng/mL. This compound also yielded a Cp in data set [7] of 21 ng/mL.
With `C#CCN1CCC(C(=O)NO)(S(=O)(=O)c2ccc(Oc3ccc(OC)cc3)cc2)CC1`, the half-life in [8] was 1.01 h. For the same compound, the figures for the IC50 in [9] and in data set [3] were 0.2 nM and 10 nM, respectively. The compound also showed a bioavailability in [10] of 36.9%. In data set [7], this compound displayed a Cp of 192 ng/mL.
Regarding `O=C(NO)C1(S(=O)(=O)c2ccc(Oc3ccc(Cl)c(Cl)c3)cc2)CCOCC1`, the IC50 in data set [9] came out at 35 nM; in [3], 4 nM.
Regarding `CN1CCC(C(=O)NO)(S(=O)(=O)c2ccc(Oc3ccc(OC(F)(F)F)cc3)cc2)CC1`, the IC50 is 0.18 nM in data set [1], 0.6 nM in data set [2], less than 0.1 nM in [4] and greater than 10000 nM in data set [5].
Turning to `C#CCN1CCC(C(=O)NO)(S(=O)(=O)c2ccc(Oc3ccc(OC(F)(F)F)cc3)cc2)CC1`, the IC50 in [1] is less than 0.1 nM; in [2], 0.2 nM; in data set [4], less than 0.1 nM; in data set [5] it was 2600 nM.
Take `CC(C)Oc1ccc(Oc2ccc(S(=O)(=O)C3(C(=O)NO)CCN(C4CC4)CC3)cc2)cc1`: the results for the IC50 in data set [2], in [4] and in data set [5] were 0.1 nM, 0.1 nM and 770 nM, respectively.
In turn, `O=C(NO)C1(S(=O)(=O)c2ccc(Oc3ccc(OC(F)(F)F)cc3)cc2)CCNCC1` gave a half-life in [8] of 1.78 h. Also, the 50% inhibitory concentration (IC50) was 0.1 nM in [2], 0.7 nM in data set [3], less than 0.1 nM in data set [4] and 10000 nM in data set [5]. Also, in data set [10], the bioavailability was determined as 6.7%. Also, the Cmax in [6] is 630 ng/mL. The compound further yielded a Cp in [7] of 223 ng/mL.
As to `CC(C)N1CCC(C(=O)NO)(S(=O)(=O)c2ccc(Oc3ccc(C(F)(F)F)cc3)cc2)CC1`, the half-life in data set [8] is 2.08 h. The IC50 in data set [9] was 40 nM; in data set [2] it was 5.5 nM; in data set [3] it was 1.4 nM; in data set [4], 0.3 nM; in [5], greater than 10000 nM. In data set [10], this compound showed a bioavailability of 48.3%. For the same compound, the Cmax in data set [6] turned out to be 5120 ng/mL. Besides, the Cp in data set [7] came to 429 ng/mL.
